Data as given in patent US20260364184A1, “COMPOUND BASED ON OXOISOINDOLINYL-SUBSTITUTED TETRAHYDROPYRIMIDINE-DIONE AND USE THEREOF” (GLUETACS THERAPEUTICS (SHANGHAI) CO., LTD., priority 2023, published 2026).
One block for each compound: values may come before it.

Columns and labels:
Tau = target: T1, Tau (Homo sapiens, UniProt P10636); test: Western blot degradation of Tau; format: cell-based; conditions: H4 Cell; 24 hours
T1 construct: endogenous in cells
Protocol: (§1) Conventional Western blot assay was performed to evaluate the effects of the compounds of the present disclosure on the expression of target proteins in cells.
(§2) (1) Cell Seeding and Protein Harvesting: The selected cells were processed according to the cell seeding procedure and protein harvesting procedure in Table II-2.
(§3) (2) To the collected supernatant, 5×SDS sample loading buffer was added, followed by denaturation at 95 °C for 5 minutes. The denatured samples were then separated by SDS-PAGE electrophoresis on a polyacrylamide gel. Proteins were transferred to a nitrocellulose membrane (0.45 μm NC membrane), blocked with blocking buffer at room temperature for 1 hour, and subjected to antibody incubation and development procedures according to the antibody manufacturer's instructions (Cell Signaling Technology).
(§4) Half-Maximal Degradation Concentration value (the drug concentration required for degrading proteins by 50%, abbreviated as DC50) reads method: comparing the grayscale values of Western blot bands from drug-treated samples with those from blank DMSO-treated controls, and identifying the drug concentration range at which the grayscale value is half that of the DMSO-treated control bands.
(§5) DC50 values can be calculated using ImageJ software to measure grayscale values of Western blot bands from drug-treated samples. The concentration-response curve is fitted to estimate the drug concentration corresponding to half the grayscale value.
(§6) Target protein remaining (%) refers to the percentage of target protein remaining in cells after treatment with protein degrader compounds.
(§7) Calculation method for target protein remaining (%): Use ImageJ software to measure grayscale values of Western blot bands from drug (protein degrader)-treated samples. The grayscale value of drug-treated bands is divided by that of internal control protein bands, and the resulting quotient is normalized to obtain the relative percentage of remaining target protein after protein degrader treatment.
(§8) Target protein degradation rate (%)=1−target protein remaining (%).

BTK = target: T2, BTK (Homo sapiens, UniProt Q06187); test: Western blot degradation of BTK; format: cell-based; conditions: Table IIA4, BTK inhibitor-based
T2 construct: expression of target proteins in cells; endogenous in cells
Protocol: as §1, §2, §3, §4, §5, §6, §7, §8

[1] = system: Human T lymphocytic leukemia cell line (Jurkat); test: Inhibition of Jurkat cell proliferation (CellTiter luminescent viability); format: cell-based; conditions: Table IC1, BTK inhibitor-based, 96 hours, read-out: Inhibitory activity (IC50, nM) on tumor cell proliferation, Jurkat
[2] = system: Human gastric cancer cell line MGC803; test: Inhibition of MGC803 tumor cell proliferation (CellTiter luminescent viability); format: cell-based; conditions: Table IC1, BTK inhibitor-based; MGC803, 96 hours; read-out: Inhibitory activity (IC50, nM) on tumor cell proliferation, MGC803
Protocol: (§9) The tumor cells used herein were cultured in a cell culture medium listed in table 3 at 37 °C in an incubator with 5% CO2. Prior to experimentation, all cell lines used were correctly identified by STR profiling, and tested negative for mycoplasma contamination using a mycoplasma detection kit through routine screenings.
(§10) The IC50 values of the compounds of the present disclosure (including the compounds in Table 1, Table 2, and Examples 1-468) were determined using the CellTiter-Meiluncell Luminescent Cell Viability Assay Kit from Dalian Meilun Biotech Co., Ltd. The detailed procedure is as follows: Tumor cells were seeded in 96-well cell culture plates at the densities specified in Table 4. On the following day, the test compounds of the present disclosure were subjected to serial dilution. The dilution can be performed according to one of the following two methods: • (1) The first dilution method: The test compounds of the present disclosure (including the compounds in Table 1, Table 2, and Examples 1-468) were subjected to 5-fold serial dilutions starting from a highest concentration of 2000 μM, resulting in a total of 9 concentrations from high to low (2000, 400, 80, 16, 3.2, 0.64, 0.128, 0.0256, 0.00512 μM). Subsequently, 0.5 μL of the test compound dilution was transferred into the 96-well plate containing the cells, with each well containing 100 μL of cell culture medium. […] Into the 96-well plate, the diluted test compounds and corresponding detection reagents were added, resulting in final test compound concentrations of 500 nM and 10 nM, respectively. The experimental procedure is described below using the diluted 2 μM test compound as an example.
(§11) 0.5 μL of the aforementioned diluted compound of the present disclosure (including the compounds in Table 1, Table 2, and Examples 1-468) was added to the seeded cells in 100 μL of medium, yielding a final test compound concentration of 10 nM. After the cells were treated with the compounds of the present disclosure for a specified period, the cell viability assay reagent was added to the culture medium according to the kit's instructions to determine cell viability. […] All controls were treated using the same procedure as the compounds of the present disclosure. The growth inhibition curves for the compounds of the present disclosure were plotted using Prism GraphPad software, and the IC50 values were calculated therefrom.

JEKO-1 = test: Inhibition of JEKO-1 cell proliferation (CellTiter luminescent viability); format: cell-based, human; conditions: Table IC1, BTK inhibitor-based; JEKO-1, 96 hours; read-out: Inhibitory activity (IC50, nM) on tumor cell proliferation, JEKO-1
Protocol: as §9, §10, §11

[3] = system: Human Multiple myeloma cell line (MM.1S); test: Inhibition of MM.1S cell proliferation (CellTiter luminescent viability); format: cell-based; conditions: Table IC1, BTK inhibitor-based, 96 hours, read-out: Inhibitory activity (IC50, nM) on tumor cell proliferation, MM.1S
In short: (§12)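 IC50 is fitted from luminescent viability (CellTiter-Meiluncell) curves. Nine-point, 5-fold dilution series (top stock 2000 μM) are added at 0.5 μL per 100 μL medium to cells plated the day before, with growth at 37 °C and 5% CO2.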

[4] = system: Human non-small cell lung cancer cell line NCI-H1975; test: Inhibition of H1975 cell proliferation (CellTiter luminescent viability); format: cell-based; conditions: Table IC1, BTK inhibitor-based; H1975, 96 hours; read-out: Inhibitory activity (IC50, nM) on tumor cell proliferation, H1975
In short: as §12

CDK2 = CDK2 (Homo sapiens, UniProt P24941); test: Western blot degradation of CDK2; format: cell-based; conditions: hPBMC Cell; 24 hours
Protocol: as §1, §2, §3, §4
(§13) DC50 values can be calculated using ImageJ software to measure grayscale values of Western blot bands from drug-treated samples. […]

ER = ER (Homo sapiens, UniProt P03372); test: Western blot degradation of ER; format: cell-based; conditions: Table IIA3, ER inhibitor-based
Protocol: as §1, §2, §3, §4, §13

[5] = target: T3, human Cereblon WT GST-tagged protein (CRBN) (Homo sapiens, UniProt Q96SW2); test: CRBN binding by HTRF (Cereblon binding kit)
T3 construct: purchased CISBIO 64BDCRBNPEH
In short: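 GST-tagged human Cereblon WT was incubated 3 h at room temperature with compound, thalidomide-Re tracer and Eu anti-GST antibody. Final compound concentrations were 10 to 0.00064 µM (7 points) or 2 and 0.5 µM. Inhibition rate was calculated from HTRF 665/620 nm ratios versus solvent and blank controls.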

T1 sequence (P10636 whole entry): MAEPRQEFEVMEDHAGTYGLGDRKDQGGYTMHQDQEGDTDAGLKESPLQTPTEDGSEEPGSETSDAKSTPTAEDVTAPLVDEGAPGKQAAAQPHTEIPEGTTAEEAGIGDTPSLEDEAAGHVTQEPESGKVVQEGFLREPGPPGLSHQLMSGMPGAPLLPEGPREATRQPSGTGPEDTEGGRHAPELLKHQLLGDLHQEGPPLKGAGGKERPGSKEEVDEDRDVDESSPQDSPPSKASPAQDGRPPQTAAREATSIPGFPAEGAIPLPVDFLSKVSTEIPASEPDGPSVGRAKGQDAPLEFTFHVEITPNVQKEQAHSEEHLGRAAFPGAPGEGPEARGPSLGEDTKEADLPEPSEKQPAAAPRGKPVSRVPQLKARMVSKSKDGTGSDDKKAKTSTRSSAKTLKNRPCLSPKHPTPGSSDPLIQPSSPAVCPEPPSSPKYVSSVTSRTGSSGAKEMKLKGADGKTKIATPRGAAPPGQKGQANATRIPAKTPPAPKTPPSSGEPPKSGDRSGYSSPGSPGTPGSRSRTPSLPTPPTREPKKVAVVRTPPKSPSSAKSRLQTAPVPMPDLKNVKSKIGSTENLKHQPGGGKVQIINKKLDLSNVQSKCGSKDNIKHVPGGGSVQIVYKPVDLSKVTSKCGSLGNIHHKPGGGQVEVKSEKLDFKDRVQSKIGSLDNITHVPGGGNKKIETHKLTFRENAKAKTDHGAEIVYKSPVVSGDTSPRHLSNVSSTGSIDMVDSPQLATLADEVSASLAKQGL
T2 sequence (Q06187 whole entry): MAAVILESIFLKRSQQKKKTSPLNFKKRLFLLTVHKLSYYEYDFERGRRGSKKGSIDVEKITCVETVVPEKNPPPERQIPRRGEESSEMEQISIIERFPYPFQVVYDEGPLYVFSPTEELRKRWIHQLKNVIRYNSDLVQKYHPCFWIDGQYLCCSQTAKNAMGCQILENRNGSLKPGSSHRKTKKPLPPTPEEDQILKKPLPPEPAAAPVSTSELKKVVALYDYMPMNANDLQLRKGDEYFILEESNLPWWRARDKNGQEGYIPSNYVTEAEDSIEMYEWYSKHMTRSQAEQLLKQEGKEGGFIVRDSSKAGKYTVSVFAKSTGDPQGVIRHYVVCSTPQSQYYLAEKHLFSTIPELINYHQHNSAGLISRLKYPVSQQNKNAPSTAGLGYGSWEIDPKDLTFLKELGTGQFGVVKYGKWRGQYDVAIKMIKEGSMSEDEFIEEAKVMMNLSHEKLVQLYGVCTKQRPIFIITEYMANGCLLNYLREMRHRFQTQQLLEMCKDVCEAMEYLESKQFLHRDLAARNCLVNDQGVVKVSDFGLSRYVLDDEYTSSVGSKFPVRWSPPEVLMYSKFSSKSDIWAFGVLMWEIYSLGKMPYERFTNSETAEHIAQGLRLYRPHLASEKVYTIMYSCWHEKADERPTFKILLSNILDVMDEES
T3 sequence (Q96SW2 whole entry): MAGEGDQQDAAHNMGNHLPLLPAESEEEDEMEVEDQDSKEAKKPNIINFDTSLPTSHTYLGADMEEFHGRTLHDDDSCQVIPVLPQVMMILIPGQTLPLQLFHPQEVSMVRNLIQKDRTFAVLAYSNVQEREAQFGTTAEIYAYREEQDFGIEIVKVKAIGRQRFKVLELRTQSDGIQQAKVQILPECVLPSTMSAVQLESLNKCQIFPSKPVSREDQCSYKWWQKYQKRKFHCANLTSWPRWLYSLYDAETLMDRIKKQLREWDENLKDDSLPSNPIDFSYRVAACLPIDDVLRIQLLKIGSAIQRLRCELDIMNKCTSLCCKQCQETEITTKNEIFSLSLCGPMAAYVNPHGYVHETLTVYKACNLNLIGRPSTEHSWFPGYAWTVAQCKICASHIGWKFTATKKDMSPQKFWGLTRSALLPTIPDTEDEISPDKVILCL
ER, sequence (P03372 whole entry): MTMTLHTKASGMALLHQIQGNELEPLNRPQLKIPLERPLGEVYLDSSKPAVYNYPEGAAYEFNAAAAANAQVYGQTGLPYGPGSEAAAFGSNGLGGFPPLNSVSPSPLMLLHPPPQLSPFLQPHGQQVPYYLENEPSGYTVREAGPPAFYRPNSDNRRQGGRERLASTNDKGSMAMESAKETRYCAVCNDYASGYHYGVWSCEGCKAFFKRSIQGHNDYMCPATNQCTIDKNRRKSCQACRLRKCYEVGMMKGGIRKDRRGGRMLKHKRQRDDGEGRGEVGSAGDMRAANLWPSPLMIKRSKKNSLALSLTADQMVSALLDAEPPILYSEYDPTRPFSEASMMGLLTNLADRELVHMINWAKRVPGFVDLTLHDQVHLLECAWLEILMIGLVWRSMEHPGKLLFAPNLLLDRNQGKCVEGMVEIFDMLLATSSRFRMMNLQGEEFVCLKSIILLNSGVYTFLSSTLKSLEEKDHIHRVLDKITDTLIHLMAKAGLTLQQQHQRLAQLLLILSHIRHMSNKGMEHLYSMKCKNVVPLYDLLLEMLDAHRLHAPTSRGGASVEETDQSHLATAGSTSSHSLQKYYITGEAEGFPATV
ER, sequence (Q96SW2 whole entry partner): as the sequence (Q96SW2 whole entry) above

SMILES: O=C1CCN(N2C(=O)c3ccc(N4CCN(CC5CCN(c6ccn7c(n6)nc6ccccc67)CC5)CC4)c(F)c3C2=O)C(=O)N1 [GT-08824, 5-(4-((1-(benzo[4,5]imidazo[1,2-a]pyrimidin-2-yl)piperidin-4-yl)methyl)piperazin-1-yl)-2-(2,4-dioxotetrahydropyrimidin-1(2H)-yl)-4-fluoroisoindoline-1,3-dione]
- Degradation of substrate protein Tau (substrate protein remaining %) (Tau): A (0%≤substrate protein remaining %≤80%)

SMILES: Cn1ncc(Cl)c1-c1cc(C(=O)N[C@@H](Cc2ccc(F)c(F)c2)CN2CCN(CC3CCN(c4cccc5c4C(=O)N(N4CCC(=O)NC4=O)C5=O)CC3)CC2)oc1Cl [GT-08590, (S)-5-chloro-4-(4-chloro-1-methyl-1H-pyrazol-5-yl)-N-(1-(3,4-difluorophenyl)-3-(4-((1-(2-(2,4-dioxotetrahydropyrimidin-1(2H)-yl)-1,3-dioxoisoindolin-4-yl)piperidin-4-yl)methyl)piperazin-1-yl)propan-2-yl) furan-2-carboxamide]
- Degradation of substrate protein Tau (substrate protein remaining %) (Tau): A (0%≤substrate protein remaining %≤80%)

SMILES: Nc1ncnc2c1c(-c1ccc(Oc3ccccc3)cc1)nn2C1CCN(Cc2ccc3c(c2)CN(N2CCC(=O)NC2=O)C3=O)CC1 [GT-05075, 1-(5-((4-(4-amino-3-(4-phenoxyphenyl)-1H-pyrazolo[3,4-d]pyrimidin-1-yl)piperidin-1-yl)methyl)-1-oxoisoindolin-2-yl)dihydropyrimidine-2,4 (1H,3H)-dione]
- Degradation of substrate protein BTK (substrate protein remaining %) (BTK): A (0%≤substrate protein remaining %≤80%)
- IC50 [1]: 50 to 100 nM
- IC50 [2]: 50 to 100 nM
- IC50 (JEKO-1): 50 to 100 nM
- IC50 [3]: 10 to 50 nM
- IC50 [4]: 50 to 100 nM

SMILES: Cc1cc(S(=O)(=O)N2CCN(Cc3ccc4c(c3)C(=O)N(N3CCC(=O)NC3=O)C4=O)CC2)ccc1Nc1ncc(Br)c(Nc2cccc(F)c2C(N)=O)n1 [GT-06829, 2-((5-bromo-2-((4-((4-((2-(2,4-dioxotetrahydropyrimidin-1(2H)-yl)-1,3-dioxoisoindolin-5-yl)methyl)piperazin-1-yl)sulfonyl)-2-methylphenyl)amino)pyrimidin-4-yl)amino)-6-fluorobenzamide]
- Degradation of substrate protein CDK2 (substrate protein remaining %) (CDK2): A (0%≤substrate protein remaining %≤80%)

SMILES: O=C1CCN(N2C(=O)c3ccc(CN4CCN(c5ccc([C@@H]6c7ccc(O)cc7OC[C@@H]6c6ccccc6)cc5)CC4)cc3C2=O)C(=O)N1 [GT-04778, 2-(2,4-dioxotetrahydropyrimidin-1(2H)-yl)-5-((4-(4-((3S,4R)-7-hydroxy-3-phenylchroman-4-yl)phenyl)piperazin-1-yl)methyl)isoindoline-1,3-dione]
- Degradation of substrate protein ER (substrate protein remaining %) (ER): A (0%≤substrate protein remaining %≤80%)

SMILES: Cn1ncc(Cl)c1-c1cc(C(=O)N[C@H](CNCC2CCN(c3cccc4c3C(=O)N(N3CCC(=O)NC3=O)C4=O)CC2)Cc2ccc(F)c(F)c2)oc1Cl [GT-08589, (S)-5-chloro-4-(4-chloro-1-methyl-1H-pyrazol-5-yl)-N-(1-(3,4-difluorophenyl)-3-(((1-(2-(2,4-dioxotetrahydropyrimidin-1(2H)-yl)-1,3-dioxoisoindolin-4-yl)piperidin-4-yl)methyl)amino)propan-2-yl) furan-2-carboxamide]
- Degradation of substrate protein Tau (substrate protein remaining %) (Tau): A (0%≤substrate protein remaining %≤80%)

SMILES: Cn1ncc(Cl)c1-c1cc(C(=O)N[C@@H](Cc2cccc(F)c2)CN2CCN(CC3CCN(c4cccc5c4C(=O)N(N4CCC(=O)NC4=O)C5=O)CC3)CC2)sc1Cl [GT-08591, (S)-5-chloro-4-(4-chloro-1-methyl-1H-pyrazol-5-yl)-N-(1-(4-((1-(2-(2,4-dioxotetrahydropyrimidin-1(2H)-yl)-1,3-dioxoisoindolin-4-yl)piperidin-4-yl)methyl)piperazin-1-yl)-3-(3-fluorophenyl)propan-2-yl)thiophene-2-carboxamide]
- Degradation of substrate protein Tau (substrate protein remaining %) (Tau): A (0%≤substrate protein remaining %≤80%)

Now from value to compound:

- Degradation of substrate protein Tau (substrate protein remaining %) (Tau): A (0%≤substrate protein remaining %≤80%)
SMILES: O=C1CCN(N2C(=O)c3ccc(CN4CCN(C5CCN(c6ccn7c(n6)nc6ccccc67)CC5)CC4)cc3C2=O)C(=O)N1 [GT-08568, 5-((4-(1-(benzo[4,5]imidazo[1,2-a]pyrimidin-2-yl)piperidin-4-yl)piperazin-1-yl)methyl)-2-(2,4-dioxotetrahydropyrimidin-1(2H)-yl)isoindoline-1,3-dione]

- Degradation of substrate protein BTK (substrate protein remaining %) (BTK): A (0%≤substrate protein remaining %≤80%)
SMILES: Nc1ncnc2c1c(-c1ccc(Oc3ccccc3)cc1)nn2C1CCN(CC2CCN(c3cccc4c3C(=O)N(N3CCC(=O)NC3=O)C4=O)CC2)CC1 [GT-05077, 4-(4-((4-(4-amino-3-(4-phenoxyphenyl)-1H-pyrazolo[3,4-d]pyrimidin-1-yl)piperidin-1-yl)methyl)piperidin-1-yl)-2-(2,4-dioxotetrahydropyrimidin-1(2H)-yl)isoindoline-1,3-dione]

- Degradation of substrate protein BTK (substrate protein remaining %) (BTK): A (0%≤substrate protein remaining %≤80%)
- inhibition at 0.5 µM ([5]; 0.5 μM, read-out: Inhibition Rate at 0.5 μM (%)): 10 to 20%
- inhibition at 2 µM ([5]; 2 μM, read-out: Inhibition Rate at 2 μM (%)): 53 to 60%
SMILES: Nc1ncnc2c1c(-c1ccc(Oc3ccccc3)cc1)nn2C1CCN(CC2CCN(C3CCN(c4ccc5c(c4)C(=O)N(N4CCC(=O)NC4=O)C5=O)CC3)CC2)CC1 [GT-05096, 5-(4-((4-(4-amino-3-(4-phenoxyphenyl)-1H-pyrazolo[3,4-d]pyrimidin-1-yl)piperidin-1-yl)methyl)-[1,4′-bipiperidin]-1′-yl)-2-(2,4-dioxotetrahydropyrimidin-1(2H)-yl)isoindoline-1,3-dione]
